Test results reported in PubChem BioAssay (NCI).
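Growth conditions: 96-well plates. Treatment: test compound, 48 hours, 5 concentrations. Analysis: linear interpolation between bracketing concentrations; unreached endpoints set to highest concentration. GI50: concentration for 50% inhibition of growth. TGI is the concentration that stops growth completely.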

Key:
Experiment in all cases: NCI-60 cell line screen, 48 h
U251 CNS = system: U251 CNS
SW-620 colon = system: SW-620 colon
SNB-75 CNS = system: SNB-75 CNS
HT29 colon = system: HT29 colon
786-0 renal = system: 786-0 renal
SNB-19 CNS = system: SNB-19 CNS
K-562 leukemia = system: K-562 leukemia
NCI-H522 lung = system: NCI-H522 lung
A498 renal = system: A498 renal
HOP-92 NSCLC = system: HOP-92 NSCLC

Structure (SMILES) | TGI (U251 CNS) | TGI (SW-620 colon) | TGI (SNB-75 CNS) | TGI (HT29 colon) | TGI (786-0 renal) | TGI (SNB-19 CNS) | TGI (K-562 leukemia) | TGI (NCI-H522 lung) | TGI (A498 renal) | TGI (HOP-92 NSCLC) | GI50 (U251 CNS) | GI50 (SW-620 colon) | GI50 (SNB-75 CNS) | GI50 (HT29 colon) | GI50 (786-0 renal) | GI50 (SNB-19 CNS) | GI50 (K-562 leukemia) | GI50 (NCI-H522 lung) | GI50 (A498 renal) | GI50 (HOP-92 NSCLC)
COc1ccc(-c2ccc(CC(=O)O)cc2)cc1OC | > 100 µM | > 100 µM | > 100 µM | > 100 µM | > 100 µM | > 100 µM | > 100 µM | > 100 µM | > 100 µM | > 100 µM |  |  |  |  |  |  |  |  |  | 
COc1cc(C2CC(c3ccc(Nc4nc(NCCO)nc(NCCO)n4)cc3)=NN2c2cc(Cl)cc(Cl)c2)cc(OC)c1OC (stereo not given) | 2.81 µM | 3.79 µM | 3.05 µM | 3.25 µM | 2.59 µM | 4.12 µM | 3.58 µM | 9.21 µM | 30.2 µM | 6.73 µM | 1.25 µM | 1.8 µM | 1.05 µM | 1.52 µM | 1.29 µM | 1.72 µM | 1.47 µM | 2.25 µM | 16.6 µM | 1.46 µM
CC1(C)CC(C)(C)c2cc(NC(=S)Nc3ccc([N+](=O)[O-])cc3)ccc2S1 | 29.4 µM | > 80.2 µM | 48.7 µM | > 100 µM | > 55.5 µM | > 76.1 µM | > 60 µM | 22.1 µM | 19.1 µM | 36.5 µM | 11.1 µM | 15.6 µM | 16.7 µM | 24.1 µM | 17 µM | 21 µM | 10.8 µM | 9.63 µM | 9.16 µM | 19.1 µM
CC1=NN(c2cccc(Cl)c2)C(=O)/C1=C\c1cn(CC(O)CN2CCCCC2)c2ccccc12 (stereo not given) | 14 µM | 3.53 µM | 21.1 µM | 4.57 µM | 20.8 µM | 53.7 µM | 39.4 µM | 26.5 µM | 41.6 µM | 38 µM | 3.64 µM | 1.73 µM | 7.75 µM | 2.02 µM | 7.46 µM | 16.8 µM | 3.29 µM | 10.9 µM | 14.6 µM | 14.8 µM
Clc1ccccc1C(Nc1cnccn1)Nc1cnccn1 | > 100 µM | > 100 µM | > 100 µM | > 100 µM | > 100 µM | > 100 µM | > 100 µM | > 100 µM | > 100 µM | > 100 µM |  |  |  |  |  |  |  |  |  | 
Cc1c(C)c([N+](=O)[O-])c2c(c1N)C(=O)c1ccccc1C2=O | > 100 µM | > 100 µM | > 100 µM | > 100 µM | > 100 µM | > 100 µM | > 100 µM | > 100 µM | > 100 µM | > 100 µM |  |  |  |  |  |  |  |  |  | 
O=c1c(Cc2ccccc2)c(O)cc2n1CCC2 | > 100 µM | > 100 µM | > 100 µM | > 100 µM | > 100 µM | > 100 µM | > 100 µM | > 100 µM | > 100 µM | > 100 µM |  |  |  |  |  |  |  |  |  | 
COC(=O)C(C(=O)C(=O)Nc1c(C)cccc1C(C)(C)C)c1nc2ccc(Cl)cc2[nH]c1=O (stereo not given) | > 100 µM | > 100 µM | > 100 µM | > 100 µM | > 100 µM | > 100 µM | > 100 µM | > 100 µM | > 100 µM | > 100 µM |  |  |  |  |  |  |  |  |  | 
CCOc1ccc(NC(=O)/C(CC(=O)c2c[n+](=O)c3ccccc3n2[O-])=N\OCCCc2ccccc2)cc1 | > 100 µM | > 100 µM | > 100 µM | > 100 µM | > 100 µM | > 100 µM | > 100 µM | > 100 µM | > 100 µM | 99.6 µM |  |  |  |  |  |  |  |  |  | 
CCCCNC(c1ccc(Cl)cc1)C(O)c1ccc(Cl)cc1 (stereo not given) | 3.65 µM | 3.93 µM | 11.4 µM | 2.74 µM | 3.95 µM | 5.74 µM | 5.68 µM | 3.51 µM | 5.57 µM | 5.16 µM | 1.75 µM | 1.78 µM | 1.93 µM | 0.792 µM | 1.59 µM | 2.09 µM | 2.11 µM | 1.56 µM | 2.29 µM | 1.13 µM
COc1ccc2c(c1)C(=O)c1c-2c(OCCCN(C)C)nc2cc(Br)ccc12 | 4.22 µM | 20 µM | 4.44 µM | 26.8 µM | 2.99 µM | 11.8 µM | 23.1 µM | 21.9 µM | 20.5 µM | 20.4 µM | 2.1 µM | 5.2 µM | 1.57 µM | 10.5 µM | 1.59 µM | 3.08 µM | 6.75 µM | 7.05 µM | 7.31 µM | 6.12 µM
C=C1C(=O)O[C@@H]2/C=C(/C)[C@@H](OC(C)=O)C/C=C(\C)C(O)[C@@H](OC(=O)/C(C)=C\C)C12 (stereo not given in full) | > 100 µM | 30.1 µM | > 100 µM | 40.1 µM | 29.7 µM | > 100 µM | 73.3 µM | 32.3 µM | > 100 µM | 50.3 µM |  |  |  |  |  |  |  |  |  | 
O=C(Nc1n[nH]c2cc(-c3cc(F)ccc3F)ccc12)C1CC1 | > 25 µM | > 25 µM | > 25 µM | > 25 µM | > 25 µM | > 25 µM | > 25 µM | > 25 µM | > 25 µM | > 25 µM | 15.3 µM | 10.7 µM | > 15.8 µM | 9.42 µM | > 25 µM | > 25 µM | 7.47 µM | 9.15 µM | > 25 µM | > 25 µM
O=C1NC(=NCCc2ccc(Cl)cc2)S/C1=C\c1ccc2ncccc2c1 | > 25 µM | > 25 µM | > 21.6 µM | > 25 µM | > 25 µM | > 25 µM | > 25 µM | > 16 µM | > 25 µM | > 25 µM | 20.8 µM | 14.2 µM | 6.77 µM | > 13 µM | 14.3 µM | > 25 µM | > 25 µM | 3.41 µM | 13.8 µM | 7.32 µM
OCc1ccc(N(Cc2ccc(F)cc2)Cc2ccc(F)cc2)cc1Cl | 19.4 µM | 20.7 µM | 22 µM | 23.3 µM | 25.5 µM | 31.6 µM | 23.1 µM | 25.9 µM | 0.989 µM | 10.2 µM | 5.5 µM | 6.21 µM | 7.74 µM | 9.66 µM | 11.6 µM | 12.9 µM | 4.93 µM | 9.39 µM | 0.18 µM | 2.21 µM
COC1=CC(c2ccc[nH]2)=N/C1=C\c1[nH]c(C)c(C(=O)CCCCCCCCC(=O)O[C@H]2CC[C@H]3C4CCc5cc(O)ccc5C4CC[C@]23C)c1C (stereo not given in full) | > 50 µM | > 50 µM | 2.79 µM | > 50 µM | > 12.8 µM | > 50 µM | > 50 µM | > 33.9 µM | > 43.8 µM | 1.43 µM | 0.331 µM | 0.197 µM | 0.29 µM | 0.21 µM | 0.787 µM | 3.16 µM | 0.267 µM | 0.277 µM | 1.28 µM | 0.167 µM
CCCCCCCC(=O)OCC/C=C/C1OC1C1OC(=O)/C=C\C=C\C(=O)N(C(C)=O)C(=O)/C=C(/C)CCC2OC2C1OC(=O)NC(C)=O (stereo not given) | 15 µM | 24 µM | 17.9 µM | 14.4 µM | 11.1 µM | > 25 µM | > 25 µM | 8.16 µM | > 25 µM | 7.38 µM | 5.54 µM | 6.42 µM | 4.79 µM | 4.03 µM | 4.12 µM | > 25 µM | 4.78 µM | 3.78 µM | 22.6 µM | 0.823 µM
Cc1ccc(/C(=N/Nc2ccc([N+](=O)[O-])cc2)Sc2cc(Cl)c(C)cc2S(N)(=O)=O)cc1 | 16.7 µM | 10.5 µM | 3.94 µM | 3.12 µM | 3.37 µM | > 20.5 µM | > 38.4 µM | > 28.2 µM | 4.55 µM | 3.77 µM | 4.34 µM | 2.55 µM | 2.06 µM | 1.31 µM | 1.82 µM | 2.5 µM | 3.11 µM | 4.96 µM | 1.87 µM | 1.45 µM
CC(C)C[C@@H](N)[C@@H](O)C(=O)N[C@H](C(=O)N[C@H](C(=O)N[C@@H](CC(=O)O)C(=O)O)C(C)C)C(C)C | > 20 µM | > 20 µM | > 20 µM | > 20 µM | > 20 µM | > 20 µM | > 20 µM | > 20 µM | > 20 µM | > 20 µM | > 20 µM | > 20 µM | > 20 µM | > 20 µM | > 20 µM | > 20 µM | > 20 µM | > 20 µM | > 20 µM | 10.3 µM
CSc1nc(Nc2cccc(NC(=O)CCl)c2)c(C#N)c(-c2cccc([N+](=O)[O-])c2)n1 | 3.13 µM | 5.11 µM | 4.8 µM | 5.53 µM | 43.7 µM | 4.78 µM | > 100 µM | 5.36 µM | 37.6 µM | 7.07 µM | 1.6 µM | 1.93 µM | 0.682 µM | 2.36 µM | 2.94 µM | 2.06 µM | 2.28 µM | 1.68 µM | 12.4 µM | 1.92 µM
